system: M17—3TAU(P301L) cells; assay: Neuroblastoma tauopathy model: inhibition of TAU-induced cytotoxicity (LDH); type: cell-based; settings: Homo sapiens, 168 h; inhibition of TAU-induced toxicity (LDH), 7 days differentiation with retinoic acid
In short: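 BE-M17 neuroblastoma cells stably expressing human TAU-P301L, differentiated with RA (2.5 μM in added medium) for 7 days at 37 °C with compounds at a range of concentrations. Cytotoxicity as supernatant LDH over total LDH (Cytotox 96); EC50 from dose-dependent inhibition curve.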

| Structure (SMILES) | EC50 [µM] |
| --- | --- |
| Cc1ccccc1CN1CCN(c2nc(-c3ccc(Cl)cc3)ns2)CC1 [Example 12, 1-[3-(4-Chloro-phenyl)-[1,2,4]thiadiazol-5-yl]-4-(2-methyl-benzyl)-piperazine] | 0.269 |
| COc1cccc(CCN2CCN(c3nc(-c4cc(Cl)cc(Cl)c4)ns3)CC2)c1 [Example 31, 1-[3-(3,5-Dichloro-phenyl)-[1,2,4]thiadiazol-5-yl]-4-[2-(3-methoxy-phenyl)-ethyl]-piperazine] | 0.0211 |
| Cc1ncc(-c2nsc(N3CCN(CCc4ccc(F)cc4)CC3)n2)cn1 [Example 181, 5-(4-(4-fluorophenethyl)piperazin-1-yl)-3-(2-methylpyrimidin-5-yl)-1,2,4-thiadiazole] | 0.0316 |
| Cc1ncc(-c2nsc(N3CCN(CCc4ccc(F)c(F)c4)CC3)n2)cn1 [Example 182, 5-(4-(3,4-difluorophenethyl)piperazin-1-yl)-3-(2-methylpyrimidin-5-yl)-1,2,4-thiadiazole] | 0.192 |
| COc1cc(CCN2CCN(c3nc(-c4cnnc(C)c4)ns3)CC2)ccn1 [Example 176, 5-(4-(2-(2-methoxypyridin-4-yl)ethyl)piperazin-1-yl)-3-(6-methylpyridazin-4-yl)-1,2,4-thiadiazole] | 0.0195 |
| O=C(CN1CCN(c2nc(-c3ccc(Cl)cc3)ns2)CC1)c1cccc(F)c1 [Example 62, 2-{4-[3-(4-Chloro-phenyl)-[1,2,4]thiadiazol-5-yl]-piperazin-1-yl}-1-(3-fluoro-phenyl)-ethanone] | 0.0687 |
| Cc1ccccc1CN1CCN(c2nc(-c3cncc(Cl)c3)ns2)CC1 [Example 151, 1-[3-(5-Chloro-pyridin-3-yl)-[1,2,4]thiadiazol-5-yl]-4-(2-methyl-benzyl)-piperazine] | 0.0082 |
| FC(F)(F)c1ccc(CCN2CCN(c3nc(-c4ccc(Cl)cc4)ns3)CC2)cc1 [Example 144, 1-[3-(4-Chloro-phenyl)-[1,2,4]thiadiazol-5-yl]-4-[2-(4-trifluoromethyl-phenyl)-ethyl]-piperazine] | 0.602 |
| COc1ccc(CC(C)N2CCN(c3nc(-c4ccc(Cl)cc4)ns3)CC2)cc1 (stereo not drawn) [Example 73, 1-[3-(4-Chloro-phenyl)-[1,2,4]thiadiazol-5-yl]-4-[2-(4-methoxy-phenyl)-1-methyl-ethyl]-piperazine] | 0.0009 |
| COc1ccc(CCN2CCN(c3nc(-c4ccc(Cl)cc4)ns3)CC2)cc1 [Example 17, 1-[3-(4-Chloro-phenyl)-[1,2,4]thiadiazol-5-yl]-4-[2-(4-methoxy-phenyl)-ethyl]-piperazine] | 0.0008 |
| COc1ccc(CCN2CCN(c3nc(-c4ccc(F)cc4)ns3)CC2)cc1 [Example 47, 1-[3-(4-Fluoro-phenyl)-[1,2,4]thiadiazol-5-yl]-4-[2-(4-methoxy-phenyl)-ethyl]-piperazine] | 0.0004 |
| COc1ccc(C(O)CN2CCN(c3nc(-c4ccc(Cl)cc4)ns3)CC2)cc1 (stereo not drawn) [Example 54, 2-{4-[3-(4-Chloro-phenyl)-[1,2,4]thiadiazol-5-yl]-piperazin-1-yl}-1-(4-methoxy-phenyl)-ethanol] | 0.0161 |
| Clc1ccc(-c2nsc(N3CCN(CC4(c5ccc(Cl)cc5)CC4)CC3)n2)cc1 [Example 68, 1-[1-(4-Chloro-phenyl)-cyclopropylmethyl]-4-[3-(4-chloro-phenyl)-[1,2,4]thiadiazol-5-yl]-piperazine] | 0.899 |
| Cc1ccc(-c2nsc(N3CCN(CCc4ccc(F)c(F)c4)CC3)n2)cn1 [Example 148, 1-[2-(3,4-Difluoro-phenyl)-ethyl]-4-[3-(6-methyl-pyridin-3-yl)-[1,2,4]thiadiazol-5-yl]-piperazine] | 0.0675 |
| COc1cc(CCN2CCN(c3nc(-c4cccc(C#N)c4)ns3)CC2)ccn1 [Example 117, 3-(5-{4-[2-(2-Methoxy-pyridin-4-yl)-ethyl]-piperazin-1-yl}-[1,2,4]thiadiazol-3-yl)-benzonitrile] | 0.0058 |
| COc1cccc(CCN2CCN(c3nc(-c4cccc(Cl)c4)ns3)CC2)c1 [Example 48, 1-[3-(3-Chloro-phenyl)-[1,2,4]thiadiazol-5-yl]-4-[2-(3-methoxy-phenyl)-ethyl]-piperazine] | 0.0006 |
| Clc1ccc(-c2nsc(N3CCN(CCc4cccc(Cl)c4)CC3)n2)cc1 [Example 22, 1-[2-(3-Chloro-phenyl)-ethyl]-4-[3-(4-chloro-phenyl)-[1,2,4]thiadiazol-5-yl]-piperazine] | 0.0042 |
| Fc1ccc(CCN2CCN(c3nc(-c4cccc(Cl)c4)ns3)CC2)cc1F [Example 135, 1-[3-(3-Chloro-phenyl)-[1,2,4]thiadiazol-5-yl]-4-[2-(3,4-difluoro-phenyl)-ethyl]-piperazine] | 0.0045 |

| Structure (SMILES) | EC50 [µM] |
| --- | --- |
| Clc1ccc(-c2nsc(N3CCN(CCc4ccccc4)CC3)n2)nc1 [Example 121, 1-[3-(5-Chloro-pyridin-2-yl)-[1,2,4]thiadiazol-5-yl]-4-phenethyl-piperazine] | 0.0346 |
| Clc1cncc(-c2nsc(N3CCN(CCN4CCCCC4)CC3)n2)c1 [Example 163, 3-(5-chloropyridin-3-yl)-5-(4-(2-(piperidin-1-yl)ethyl)piperazin-1-yl)-1,2,4-thiadiazole] | 0.013 |
| COc1cccc(CCN2CCN(c3nc(-c4cccs4)ns3)CC2)c1 [Example 33, 1-[2-(3-Methoxy-phenyl)-ethyl]-4-(3-thiophen-2-yl-[1,2,4]thiadiazol-5-yl)-piperazine] | 0.158 |
| COc1ccc(C(F)CN2CCN(c3nc(-c4ccc(Cl)cc4)ns3)CC2)cc1 (stereo not drawn) [Example 64, 1-[3-(4-Chloro-phenyl)-[1,2,4]thiadiazol-5-yl]-4-[2-fluoro-2-(4-methoxy-phenyl)-ethyl]-piperazine] | 0.0098 |
| COc1ccc(CCN2CCN(c3nc(-c4ccc(C)nc4)ns3)CC2)cc1 [Example 95, 1-[2-(4-Methoxy-phenyl)-ethyl]-4-[3-(6-methyl-pyridin-3-yl)-[1,2,4]thiadiazol-5-yl]-piperazine] | 0.0031 |
| N#Cc1cccc(-c2nsc(N3CCN(CCc4ccc(F)c(F)c4)CC3)n2)c1 [Example 137, 3-(5-{4-[2-(3,4-Difluoro-phenyl)-ethyl]-piperazin-1-yl}-[1,2,4]thiadiazol-3-yl)-benzonitrile] | 0.0062 |
| Fc1ccc(CCN2CCN(c3nc(-c4cc(Cl)ccn4)ns3)CC2)cc1 [Example 122, 1-[3-(4-Chloro-pyridin-2-yl)-[1,2,4]thiadiazol-5-yl]-4-[2-(4-fluoro-phenyl)-ethyl]-piperazine] | 0.0425 |
| COc1ccc(CCN2CCN(c3nc(-c4ccc(C#N)cc4)ns3)CC2)cn1 [Example 114, 4-(5-{4-[2-(6-Methoxy-pyridin-3-yl)-ethyl]-piperazin-1-yl}-[1,2,4]thiadiazol-3-yl)-benzonitrile] | 0.0079 |
| Fc1cccc(-c2nsc(N3CCN(CCc4cccc(C(F)(F)F)c4)CC3)n2)c1 [Example 141, 1-[3-(3-Fluoro-phenyl)-[1,2,4]thiadiazol-5-yl]-4-[2-(3-trifluoromethyl-phenyl)-ethyl]-piperazine] | 0.198 |
| C=C(CN1CCN(c2nc(-c3ccc(Cl)cc3)ns2)CC1)c1ccc(OC)cc1 [Example 59, 1-[3-(4-Chloro-phenyl)-[1,2,4]thiadiazol-5-yl]-4-[2-(4-methoxy-phenyl)-allyl]-piperazine] | 0.075 |
| Fc1ccc(-c2nsc(N3CCN(CCc4ccc(Cl)cc4)CC3)n2)cc1F [Example 104, 1-[2-(4-Chloro-phenyl)-ethyl]-4-[3-(3,4-difluoro-phenyl)-[1,2,4]thiadiazol-5-yl]-piperazine] | 0.0112 |
| COc1ccc(CCN2CCN(c3nc(-c4ccc(C)cc4)ns3)CC2)cc1 [Example 19, 1-[2-(4-Methoxy-phenyl)-ethyl]-4-(3-p-tolyl-[1,2,4]thiadiazol-5-yl)-piperazine] | 0.002 |
| Cc1ccc(-c2nsc(N3CCN(CCc4ccc(Cl)cc4)CC3)n2)cn1 [Example 98, 1-[2-(4-Chloro-phenyl)-ethyl]-4-[3-(6-methyl-pyridin-3-yl)-[1,2,4]thiadiazol-5-yl]-piperazine] | 0.0806 |
| COc1ccc(CCN2CCN(c3nc(-c4ccc(OC)cc4)ns3)CC2)cc1 [Example 40, 1-[2-(4-Methoxy-phenyl)-ethyl]-4-[3-(4-methoxy-phenyl)-[1,2,4]thiadiazol-5-yl]-piperazine] | 0.0141 |
| Clc1ccc(CCN2CCN(c3nc(-c4ccc(Cl)cn4)ns3)CC2)cc1 [Example 124, 1-[2-(4-Chloro-phenyl)-ethyl]-4-[3-(5-chloro-pyridin-2-yl)-[1,2,4]thiadiazol-5-yl]-piperazine] | 0.458 |
| Fc1ccc(-c2nsc(N3CCN(CCc4ccccc4)CC3)n2)cc1F [Example 101, 1-[3-(3,4-Difluoro-phenyl)-[1,2,4]thiadiazol-5-yl]-4-phenethyl-piperazine] | 0.0032 |
| COc1ccc(CCN2CCN(c3nc(-c4ccc(F)c(F)c4)ns3)CC2)cn1 [Example 105, 1-[3-(3,4-Difluoro-phenyl)-[1,2,4]thiadiazol-5-yl]-4-[2-(6-methoxy-pyridin-3-yl)-ethyl]-piperazine] | 0.0021 |
| COc1cccc(CCN2CCN(c3nc(-c4ccncc4)ns3)CC2)c1 [Example 20, 1-[2-(3-Methoxy-phenyl)-ethyl]-4-(3-pyridin-4-yl-[1,2,4]thiadiazol-5-yl)-piperazine] | 0.174 |
